Experimental data from ChEMBL document CHEMBL2311338, “On the preparation of indoxyl red from indican and some new characteristics” (Bioorg Med Chem Lett, 2013).
The source made the active and inactive calls. No cut-off for these calls is given here.

Experiments:
[1] = Anticancer activity against 1 x 10^5 cells mouse NSF202 cells assessed as decrease in viable cells at 1 ug/ml measured after 2 days by trypan blue exclusion method; type: functional
[2] = organism: Mus musculus; test: Anticancer activity against 1 x 10^5 cells mouse NSF202 cells assessed as cell growth inhibition at 1.02 uM measured after 2 days by trypan blue exclusion method; type: functional, cell-based
[3] = organism: Mus musculus; test: Anticancer activity against 2 x 10^5 cells mouse NSF202 cells assessed as cell growth inhibition at 1.02 uM measured after 2 days by trypan blue exclusion method; type: functional, cell-based
[4] = Antiproliferative activity against human leukemia cells; type: functional, cell-based; details: Leukemia cell
[5] = test system: MCF7; test: Antiproliferative activity against human MCF7 cells; type: functional, cell-based
[6] = Antiproliferative activity against human lung cancer cells; type: functional, cell-based; details: Cancer cell lines
[7] = test system: SNU-638; test: Antiproliferative activity against human SNU638 cells; type: functional, cell-based

| Structure (SMILES) | Activity [1] [%] | inhibition [2] | inhibition [3] | IC50 [4] [µM] | IC50 [5] [µM] | IC50 [6] [µM] | IC50 [7] [µM] |
| --- | --- | --- | --- | --- | --- | --- | --- |
| O=C1C(c2c[nH]c3ccccc23)=Nc2ccccc21 [INDOXYL RED] | 40 | Active | Active | – | – | – | – |
| O=Nc1c(-c2c(O)[nH]c3ccc([N+](=O)[O-])cc23)[nH]c2ccccc12 | – | – | – | 9.2 | 1.4 | 5.4 | 1.2 |
